# In patent publication US6331520A, “Pharmaceutical compositions of peptides having low solubility in physiological medium” (Applied Research Systems ARS Holding NV, priority 1997, dated 2001):
# Non-standard residues stand in square brackets, D forms with d. Residues, ends and D or L forms follow the SMILES beside them. *: point of attachment. dPhe(4-Cl) = N[C@H](Cc1ccc(Cl)cc1)C(=O)O; d2Nal = N[C@H](Cc1ccc2ccccc2c1)C(=O)O; Lys(iPr) = CC(C)NCCCC[C@H](N)C(=O)O; d3Pal = N[C@H](Cc1cccnc1)C(=O)O; Nicotinoyl = O=C(c1cccnc1)*
# What was measured:
# Assay type in all cases: physicochemical
# [1] = Solubilisation studies for hGRF; conditions: for solubility thermodynamic at 1 week: 0.9% NaCl
# Method: Solubilisation studies were carried out to study the effect of saline and pH 7 phosphate buffer on the solubility of hGRF.
# Qunatitation of the amount of hGRF dissolved was performed by filtration of the equilibrated solution through a 0.45 μm filter prior to dilution and analysis by HPLC.
# [2] = Solubilisation studies for antide: effect of pH (WFI, saline, acids)
# Method: Solubilisation studies were carried out to study the effect of:
# pH (solutions were acidified with either acetic acid or hydrochloric acid)
# (§1) Saline used in these studies corresponds to 0.9% sodium chloride solution.
# (§2) Following the visual analysis, a number of solutions were selected for further quantitative determination of the solubility by filtration (0.45 μm filters) and appropriate dilution using the RP-HPLC method described above.
# Tables 3 to 7 summarise the observations collected in order to obtain information on the solubility behaviour of antide in water for injectables (WFI), WFI acidified by HCl or acetic acid, saline and saline acidified by acetic acid. In agreement with previous studies, the solubility of antide increased as the pH decreased.
# [3] = Solubilisation studies for antide: effect of hydrotropic agents in saline; conditions: for Solubility: antide 5 mg/ml added
# Description: hydrotropic agents (nicotinamide, sodium saccharin, sodium salicylate, sodium benzoate, histidine hydrochloride, thiamine hydrochloride, phenylalanine).
# as §1, §2
# The effect of different hydrotropic agents (1.5% & 15% w/w) in saline solutions was also evaluated and is described in Tables 8 and 9.
# [4] = Stability of nicotinamide/antide formulations; design: Stability (antide found): unit not given here
# Method: RP-HPLC gradient elution, C-18 (e.g. Vydac 218 TP54, 250×4.6 mm) column. UV detection at 215 nm, injection volume 15 μl, mobile phase A: pH 4.5 phosphate buffer (0.1 M), mobile phase B: acetonitrile, flow rate=1.0 ml/min, runtime=23 min. External standard solution concentrations of 100 μg/ml were injected during analysis. The gradient was: 77% A, 23% B to 52% A, 48% B […].
# Four formulations of antide and nicotinamide at different concentration ratios and adjusted to pH 5 were prepared and tested over 3 months at +40° C., +25° C. and +4° C.
smiles,measurement,setting,value
"CC[C@H](C)[C@H](NC(=O)[C@H](C)NC(=O)[C@H](CC(=O)O)NC(=O)[C@H](C)NC(=O)[C@@H](N)Cc1ccc(O)cc1)C(=O)N[C@@H](Cc1ccccc1)C(=O)N[C@H](C(=O)N[C@@H](CC(N)=O)C(=O)N[C@@H](CO)C(=O)N[C@@H](Cc1ccc(O)cc1)C(=O)N[C@@H](CCCNC(=N)N)C(=O)N[C@@H](CCCCN)C(=O)N[C@H](C(=O)N[C@@H](CC(C)C)C(=O)NCC(=O)N[C@@H](CCC(N)=O)C(=O)N[C@@H](CC(C)C)C(=O)N[C@@H](CO)C(=O)N[C@@H](C)C(=O)N[C@@H](CCCNC(=N)N)C(=O)N[C@@H](CCCCN)C(=O)N[C@@H](CC(C)C)C(=O)N[C@@H](CC(C)C)C(=O)N[C@@H](CCC(N)=O)C(=O)N[C@@H](CC(=O)O)C(=O)N[C@H](C(=O)N[C@@H](CCSC)C(=O)N[C@@H](CO)C(=O)N[C@@H](CCCNC(=N)N)C(N)=O)[C@@H](C)CC)C(C)C)[C@@H](C)O [hGRF, hGRF(1-29)-NH2]",solubility thermodynamic at 1 week,"[1]; 25° C., one week",42 µg/mL
same,solubility thermodynamic at 1 week,[1]; 40° C. for one week,97 µg/mL
same,solubility at 1 week,"[1]; 25° C., WFI, one week",> 1000 µg/mL
same,Solubility,"[1]; 40° C. for one week, 0.9% NaCl + 5% nicotinamide",875 µg/mL
same,solubility thermodynamic at 5 days,"[1]; PBS, pH 7, aqueous buffer, 25° C., 5 days",32 µg/mL
CC(=O)N[C@H](Cc1ccc2ccccc2c1)C(=O)N[C@H](Cc1ccc(Cl)cc1)C(=O)N[C@H](Cc1cccnc1)C(=O)N[C@@H](CO)C(=O)N[C@@H](CCCCNC(=O)c1cccnc1)C(=O)N[C@H](CCCCNC(=O)c1cccnc1)C(=O)N[C@@H](CC(C)C)C(=O)N[C@@H](CCCCNC(C)C)C(=O)N1CCC[C@H]1C(=O)N[C@H](C)C(N)=O [antide] (Ac-[d2Nal][dPhe(4-Cl)][d3Pal]SK(Nicotinoyl)[dK](Nicotinoyl)L[Lys(iPr)]P[dA]-NH2),Solubility,"[2]; 10 mg/ml in saline, pH 3.0 or 4.6, 4% acetic acid",not soluble
same,Solubility,"[2]; WFI, 10 mg/ml nominal amount added, pH 4.40",8130 µg/mL
same,Solubility,"[2]; phosphate buffered saline, aqueous buffer, read-out: solubility",16 µg/mL
same,Solubility,"[2]; saline solution, natural pH 5.04",25 µg/mL
same,solubility thermodynamic,"[2]; water, without further acidification, read-out: solubility limit",8100 µg/mL
same,solubilisation,"[3]; 1.5% w/w hydrotropic agents in saline, antide 10 mg/ml",not effective
same,antide solubilised,[3]; 5% nicotinamide in saline,about 0.5 mg/ml
same,antide solubilised,[3]; 20% nicotinamide in saline,8.5 mg/mL
same,Solubility,"[3]; saline + 15% nicotinamide, pH 5.79",3320 µg/mL
same,Solubility,"[3]; saline + 15% sodium benzoate, pH 6.69",72 µg/mL
same,Solubility,"[3]; saline + 15% sodium salicylate, pH 5.81",210 µg/mL
same,Solubility,"[3]; saline + 15% thiamine hydrochloride, pH 3.30",3010 µg/mL
same,Solubility,"[3]; saline + histidine hydrochloride (5%), pH 4.17",76 µg/mL
same,Solubility,"[3]; saline + phenylalanine (1.7%), pH 4.59",66 µg/mL
same,Stability (antide found),"[4]; antide 1 mg/ml, nicotinamide 5%, +4° C., 4W",0.9
same,Stability (antide found),"[4]; antide 1 mg/ml, nicotinamide 5%, +4° C., 12W",1.0
same,Stability (antide found),"[4]; antide 1 mg/ml, nicotinamide 5%, +25° C., 1W",0.9
same,Stability (antide found),"[4]; antide 1 mg/ml, nicotinamide 5%, +25° C., 4W",0.9
same,Stability (antide found),"[4]; antide 1 mg/ml, nicotinamide 5%, +25° C., 12W",1.0
same,Stability (antide found),"[4]; antide 1 mg/ml, nicotinamide 5%, +40° C., 1W",1.0
same,Stability (antide found),"[4]; antide 1 mg/ml, nicotinamide 5%, +40° C., 4W",0.9
same,Stability (antide found),"[4]; antide 1 mg/ml, nicotinamide 5%, +40° C., 12W",1.0
same,Stability (antide found),"[4]; antide 1 mg/ml, nicotinamide 5%, T = 0",1.0
same,Stability (antide found),"[4]; antide 1 mg/ml, nicotinamide 25%, +4° C., 4W",1.0
same,Stability (antide found),"[4]; antide 1 mg/ml, nicotinamide 25%, +4° C., 12W",1.1
same,Stability (antide found),"[4]; antide 1 mg/ml, nicotinamide 25%, +25° C., 1W",1.0
same,Stability (antide found),"[4]; antide 1 mg/ml, nicotinamide 25%, +25° C., 4W",1.0
same,Stability (antide found),"[4]; antide 1 mg/ml, nicotinamide 25%, +25° C., 12W",1.1
same,Stability (antide found),"[4]; antide 1 mg/ml, nicotinamide 25%, +40° C., 1W",1.0
same,Stability (antide found),"[4]; antide 1 mg/ml, nicotinamide 25%, +40° C., 4W",1.0
same,Stability (antide found),"[4]; antide 1 mg/ml, nicotinamide 25%, +40° C., 12W",1.1
same,Stability (antide found),"[4]; antide 1 mg/ml, nicotinamide 25%, T = 0",1.0
same,Stability (antide found),"[4]; antide 10 mg/ml, nicotinamide 5%, +4° C., 1W",10.3
same,Stability (antide found),"[4]; antide 10 mg/ml, nicotinamide 5%, +4° C., 4W",10.0
same,Stability (antide found),"[4]; antide 10 mg/ml, nicotinamide 5%, +4° C., 12W",10.5
same,Stability (antide found),"[4]; antide 10 mg/ml, nicotinamide 5%, +25° C., 1W",gel
same,Stability (antide found),"[4]; antide 10 mg/ml, nicotinamide 5%, +25° C., 4W",gel
same,Stability (antide found),"[4]; antide 10 mg/ml, nicotinamide 5%, +25° C., 12W",gel
same,Stability (antide found),"[4]; antide 10 mg/ml, nicotinamide 5%, +40° C., 1W",gel
same,Stability (antide found),"[4]; antide 10 mg/ml, nicotinamide 5%, +40° C., 4W",gel
same,Stability (antide found),"[4]; antide 10 mg/ml, nicotinamide 5%, +40° C., 12W",gel
same,Stability (antide found),"[4]; antide 10 mg/ml, nicotinamide 5%, T = 0",9.7
same,Stability (antide found),"[4]; antide 10 mg/ml, nicotinamide 25%, +4° C., 4W",10.1
same,Stability (antide found),"[4]; antide 10 mg/ml, nicotinamide 25%, +25° C., 1W",9.8
same,Stability (antide found),"[4]; antide 10 mg/ml, nicotinamide 25%, +25° C., 4W",9.5
same,Stability (antide found),"[4]; antide 10 mg/ml, nicotinamide 25%, +25° C., 12W",11.1
same,Stability (antide found),"[4]; antide 10 mg/ml, nicotinamide 25%, +40° C., 1W",10.7
same,Stability (antide found),"[4]; antide 10 mg/ml, nicotinamide 25%, +40° C., 4W",9.4
same,Stability (antide found),"[4]; antide 10 mg/ml, nicotinamide 25%, +40° C., 12W",10.2
same,Stability (antide found),"[4]; antide 10 mg/ml, nicotinamide 25%, T = 0",9.8
same,chemical degradation,"[4]; antide/nicotinamide formulations, after 3 months",No chemical degradation
